{"source": "patent US20260325464A1", "about": "“COMPOSITIONS FOR MODULATING THE EXPRESSION OF AQUAPORINS IN NEURODEGENERATIVE DISORDERS” (priority 2023, published 2026)", "assay_type_in_all_cases": "in vivo, rat", "key": {"Parkinson's disease": {"system": "Parkinson's disease", "assay": "Open field test in rats with reserpine-induced Parkinson's disease", "conditions": "for Freezing / Number of central explorations / Number of squares crossed: p.o. + Reserpine (4 mg/kg, s.c.), open field, Mean ± SEM, n = 6", "source_text": "The induction of Parkinson's disease and measurement of other parameters were done as per the reported protocol (Santos et al., Cognitive, motor and tyrosine hydroxylase temporal impairment in a model of parkinsonism induced by reserpine. Behav Brain Res. 2013; 253:68-77 and Shishehbore et al. A novel kinetic spectrophotometric method for the determination of dopamine in biological and pharmaceutical samples. J Chem. 2013; 2013:1-6). Induction of Parkinson's disease was done by administering Resperine, which inhibits the monoamine vesicular transporters, thus decreasing the levels of monoamine neurotransmitters in the brain. Following pretreatment for 14 days with Gingerenone A, the rat groups received subcutaneous injections of reserpine (4 mg/kg) for the final five days of the treatment regimen. Resperine (5 mg) was dissolved in 1 ml of 1% acetic acid and then diluted tenfold with distilled water to achieve a final concentration of 500 μg/ml. The normal control group received saline with 1% acetic acid […], administered from day 10 to day 14. Thirty minutes following the administration of reserpine on the 14th day, behavioural assessments were conducted using the Open Field test, Y Maze, and Catalepsy tests to evaluate changes. Rats administered with Carbidopa, a known drug for the management of Parkinson's disease was also used for comparison. Upon completion of the study, brains were harvested for biochemical analyses and histopathological studies. The experimental group is depicted in table 10.\nOpen filed test—The test was conducted as per protocol described by Saleem et al., Pharmacological Potential of the Standardized Methanolic Extract of Prunus armeniaca L. in the Haloperidol-Induced Parkinsonism Rat Model. Evid Based Complement Alternat Med. 2022:29; 3697522. doi: 10.1155/2022/3697522. This test was conducted to assess the locomotor and exploratory behaviors of the experimental rats. A square-shaped wooden box measuring 100 cm in width, 100 cm in […], and 45 cm in height was constructed using plywood material, painted white, with a black-lined floor divided into 25 blocks. The rats were placed in the center of the field for a duration of 5 minutes and allowed to explore the box freely. The number of squares crossed, both centrally and horizontally, along with the total number of crossings, instances of defecation, freezing behavior, and postures were recorded during this period. Normal animals readily and quickly acclimate to the chamber and try to explore the center area of the squares."}, "β-amyloid (1-42)": {"system": "β-amyloid (1-42)", "assay": "β-amyloid (1-42) level in plasma (ELISA), AlCl3 Alzheimer's model", "conditions": "for β-amyloid: p.o. + AlCl3 (100 mg/kg, i.p.), plasma, Mean ± SEM, n = 6", "source_text": "The levels of Tau, β-amyloid (1-42) and Apolipoprotein E were estimated. using ELISA kit (Krishgen Biosystems, India). All the protein biomarkers of AD were elevated in the AD control group."}, "BDNF": {"system": "BDNF", "assay": "BDNF level in brain homogenate (ELISA), AlCl3 Alzheimer's model", "conditions": "for BDNF: p.o. + AlCl3 (100 mg/kg, i.p.), brain homogenate, Mean ± SEM, n = 6", "source_text": "Brain-derived neurotrophic factors (BDNFs) play an important role in maintaining synaptic plasticity in learning and memory. Depletion of BDNF has been linked with Aβ accumulation, tau phosphorylation, neuroinflammation and neuronal apoptosis. Considering AD as a synaptic disorder, BDNF has attracted increasing attention as a potential diagnostic biomarker and a therapeutical molecule for AD. In the current study, BDNF levels were determiner using ELISA kit (Krishgen Biosystems, India)."}, "Aquaporin-4 (AQP4)": {"system": "Aquaporin-4 (AQP4)", "assay": "AQP4 expression in brain homogenate (ELISA), AlCl3 Alzheimer's model", "conditions": "5, 10 and 20 mg/kg, FIG. 1", "source_text": "Aquaporin-4 (AQP4) is a channel protein that plays a fundamental role in glymphatic system, a pathway for fluid exchange in the central nervous system, as well as a central figure in the pathophysiology of neurodegenerative diseases such as Alzheimer's disease (AD) and frontotemporal dementia. It plays an important role in maintaining cerebral fluid homeostasis by acting as a water channel protein. The AQP4 not only enables water permeability through the blood-brain barrier and also regulates water exchange between perivascular spaces and the rest of the glymphatic system (Szczygielski et al., Cerebral Microcirculation, Perivascular Unit, and Glymphatic System: Role of Aquaporin-4 as the Gatekeeper for Water Homeostasis, Front. Neurol. 12:767470, doi: 10.3389/fneur.2021.767470). Further, Astrocytes are known to maintain extracellular potassium concentrations in the brain by a process termed “potassium siphoning”. Changes in potassium channel function alters brain homeostasis leading to brain impairment. Water movement via the AQP4 water channel localized to astrocyte end-feet maintains osmotic balance and promotes effective potassium siphoning (Verkman A S, Aquaporins in Clinical Medicine, Annu. Rev. Med. 2012. 63:303-16). […] In the present study, the levels were determined using ELISA kit (Biogenuix Medsystems Pvt. Ltd.)."}, "Alzheimer's disease": {"system": "Alzheimer's disease", "assay": "Novel object recognition (NOR) test in rats with AlCl3-induced Alzheimer's disease", "conditions": "for % Recognition Index: p.o. + AlCl3 (100 mg/kg, i.p.), NOR at 15th day, Mean ± SEM, n = 6", "experimental": "Novel object recognition (NOR)—Novel object recognition (NOR)—This test was performed as per reported protocol (Antunes M, Biala G. The novel object recognition memory: neurobiology, test procedure, and its modifications. Cognit. Process. 2012:13, 93-110). During the retrieval phase, the animal was allowed to explore the field for 10 min. The hippocampal functions were assessed through the recognition indices, which were measured according to the time spent by the animals to explore the familiar and new objects.\nThe test is a relatively fast and efficient means for testing learning and memory in an animal model. The test relies on only three sessions: one habituation session, one training session, and one test session and relies on rodents' natural proclivity for exploring novelty. This is a relatively low-stress, efficient test for memory in an animal model, and is appropriate for the detection of neuropsychological changes after the administration of test drugs (Lupetow L, Novel Object Recognition Test for the Investigation of Learning and Memory in Mice, J Vis Exp. 2017; (126): 55718)."}}}
{"smiles": "COc1cc(CC/C=C/C(=O)CCc2ccc(O)c(OC)c2)ccc1O", "note": "[Gingerenone A]", "values": [{"measurement": "Freezing", "setting": "Parkinson's disease; 5 mg/kg", "value": "15.29 ± 0.35", "unit": "s"}, {"measurement": "Number of central explorations", "setting": "Parkinson's disease; 5 mg/kg", "value": "12.57 ± 1.05"}, {"measurement": "Number of squares crossed", "setting": "Parkinson's disease; 5 mg/kg", "value": "21.62 ± 2.47"}, {"measurement": "Freezing", "setting": "Parkinson's disease; 10 mg/kg", "value": "10.38 ± 0.62", "unit": "s"}, {"measurement": "Number of central explorations", "setting": "Parkinson's disease; 10 mg/kg", "value": "17.34 ± 1.20"}, {"measurement": "Number of squares crossed", "setting": "Parkinson's disease; 10 mg/kg", "value": "27.45 ± 2.06"}, {"measurement": "Freezing", "setting": "Parkinson's disease; 20 mg/kg", "value": "9.02 ± 0.45", "unit": "s"}, {"measurement": "Number of central explorations", "setting": "Parkinson's disease; 20 mg/kg", "value": "17.27 ± 0.98"}, {"measurement": "Number of squares crossed", "setting": "Parkinson's disease; 20 mg/kg", "value": "26.26 ± 2.27"}, {"measurement": "locomotory and exploratory behaviors (in words)", "setting": "Parkinson's disease; reserpine model, Table 11", "value": "significantly improved the behavior"}, {"measurement": "β-amyloid", "setting": "β-amyloid (1-42); 5 mg/kg", "value": "10.74 ± 0.035", "unit": "pg/mL"}, {"measurement": "β-amyloid", "setting": "β-amyloid (1-42); 10 mg/kg", "value": "8.04 ± 0.023", "unit": "pg/mL"}, {"measurement": "β-amyloid", "setting": "β-amyloid (1-42); 20 mg/kg", "value": "7.88 ± 0.065", "unit": "pg/mL"}, {"measurement": "levels of β-amyloid (in words)", "setting": "β-amyloid (1-42); AlCl3 model, Table 7", "value": "significantly reduced"}, {"measurement": "BDNF", "setting": "BDNF; 5 mg/kg", "value": "29.36 ± 1.09", "unit": "pg/mL"}, {"measurement": "BDNF", "setting": "BDNF; 10 mg/kg", "value": "36.07 ± 1.54", "unit": "pg/mL"}, {"measurement": "BDNF", "setting": "BDNF; 20 mg/kg", "value": "38.76 ± 2.05", "unit": "pg/mL"}, {"measurement": "levels of BDNF (in words)", "setting": "BDNF; AlCl3 model, Table 6", "value": "significantly increased the levels of BDNF"}, {"measurement": "AQP4 expression (in words)", "setting": "Aquaporin-4 (AQP4)", "value": "increased AQP4 expression"}, {"measurement": "% Recognition Index", "setting": "Alzheimer's disease; 5 mg/kg", "value": "56.23 ± 2.35", "unit": "%"}, {"measurement": "% Recognition Index", "setting": "Alzheimer's disease; 10 mg/kg", "value": "65.54 ± 2.78", "unit": "%"}, {"measurement": "% Recognition Index", "setting": "Alzheimer's disease; 20 mg/kg", "value": "66.53 ± 3.20", "unit": "%"}, {"measurement": "recognition index (in words)", "setting": "Alzheimer's disease; AlCl3 model, Table 2", "value": "effectively improved the scores"}]}
